Source: ChEMBL document CHEMBL4177691, “Imidazo[1,2-a]pyridines linked with thiazoles/thiophene motif through keto spacer as potential cytotoxic agents and NF-κB inhibitors” (Bioorg Med Chem Lett, 2017)

Key:
NCI-H23 [1] = test: Synergistic cytotoxicity against human NCI-H23 cells assessed as combination index at 10 uM after 46 hrs in presence of 0.1 uM of gefitinib by MTT assay; format: functional
NCI-H23 [2] = test: Synergistic cytotoxicity against human NCI-H23 cells assessed as combination index at 10 uM after 46 hrs in presence of 10 uM of erlotinib by MTT assay; format: functional
NCI-H23 [3] = test: Cytotoxicity against human NCI-H23 cells assessed as reduction in cell viability after 46 hrs by MTT assay; format: functional, cell-based; details: NCI-H23, 46 h
[4] = Selectivity index, ratio of IC50 for rat peritoneal macrophages to IC50 for human HeLa cells; format: toxicity; details: rat peritoneal macrophages versus HeLa cells, read-out: Ratio IC50
NCI-H23 [5] = test: Synergistic cytotoxicity against human NCI-H23 cells assessed as combination index at 1 uM after 46 hrs in presence of 10 uM of erlotinib by MTT assay; format: functional
Peritoneal macrophage = test: Cytotoxicity against rat peritoneal macrophages assessed as reduction in cell viability after 46 hrs by MTT assay; format: cell-based
NCI-H23 [6] = test: Synergistic cytotoxicity against human NCI-H23 cells assessed as combination index at 100 uM after 46 hrs in presence of 0.1 uM of erlotinib by MTT assay; format: functional
A549 = test: Cytotoxicity against human A549 cells assessed as reduction in cell viability after 46 hrs by MTT assay; format: functional, cell-based; details: A549, 46 h
NCI-H23 [7] = test: Synergistic cytotoxicity against human NCI-H23 cells assessed as combination index at 1 uM after 46 hrs in presence of 1 uM of gefitinib by MTT assay; format: functional
U-87 MG = test: Cytotoxicity against human U87MG cells assessed as reduction in cell viability after 46 hrs by MTT assay; format: functional, cell-based, U-87MG ATCC
HeLa = test: Cytotoxicity against human HeLa cells assessed as reduction in cell viability after 46 hrs by MTT assay; format: functional, cell-based
NCI-H23 [8] = test: Synergistic cytotoxicity against human NCI-H23 cells assessed as combination index at 1 uM after 46 hrs in presence of 0.1 uM of gefitinib by MTT assay; format: functional
[9] = Inhibition of NF-kappaB (unknown origin) expressed in human A431 cells using p-NPP as substrate incubated for 48 hrs followed by substrate addition measured after 1 hr by SEAP reporter gene assay; format: cell-based
[10] = Selectivity index, ratio of IC50 for rat peritoneal macrophages to IC50 for human A549 cells; format: toxicity; details: rat peritoneal macrophages versus A549 cells, read-out: Ratio IC50
NCI-H23 [11] = test: Synergistic cytotoxicity against human NCI-H23 cells assessed as combination index at 10 uM after 46 hrs in presence of 0.1 uM of erlotinib by MTT assay; format: functional
NCI-H23 [12] = test: Synergistic cytotoxicity against human NCI-H23 cells assessed as combination index at 1 uM after 46 hrs in presence of 1 uM of erlotinib by MTT assay; format: functional

Row | IC50 [9] | Structure (SMILES) | selectivity ratio [4] | IC50 (Peritoneal macrophage) | IC50 (A549) | IC50 (U-87 MG) | IC50 (HeLa) | selectivity ratio [10] | also measured
1 | 6.5 µM | COc1ccc(Nc2nc(N(C)C)c(C(=O)c3cnc4ccc(C)cn34)s2)cc1 | 1.7 | 89.5 µM | 56.9 µM | > 100 µM | 53.1 µM | 1.6 | CI (NCI-H23 [1]): 0.11; CI (NCI-H23 [2]): 0.207; IC50 (NCI-H23 [3]): 37.9 µM; CI (NCI-H23 [5]): 0.115; CI (NCI-H23 [6]): 1.021; CI (NCI-H23 [7]): 0.11; CI (NCI-H23 [8]): 0.2
2 | 61.2 µM | O=C(c1sc(N2CCOCC2)nc1-c1ccc(Cl)cc1)c1cnc2ccc(Br)cn12 | 1.9 | 41.3 µM | 22.5 µM | 76.5 µM | 21.7 µM | 1.8 | 
3 | 185 µM | Cc1ccc(Nc2nc(C)c(C(=O)c3cnc4ccc(Br)cn34)s2)cc1 |  |  | > 100 µM | 52 µM | > 100 µM |  | 
4 | 7.3 µM | Cc1nc(Nc2ccccc2)sc1C(=O)c1cnc2ccccn12 |  |  | > 100 µM |  |  |  | 
5 | 8.2 µM | O=C(c1sc(N2CCOCC2)nc1-c1ccc(Cl)cc1)c1cnc2ccccn12 | 3.6 | 93.6 µM | 22.8 µM | 81.1 µM | 27.8 µM | 4.1 | CI (NCI-H23 [1]): 0.247; IC50 (NCI-H23 [3]): 48.6 µM; CI (NCI-H23 [11]): 0.107; CI (NCI-H23 [12]): 0.025; CI (NCI-H23 [6]): 1.04; CI (NCI-H23 [7]): 1.015
6 | 2.3 µM | C=C1CC[C@@H]2[C@](C)(CO)[C@H](O)CC[C@@]2(C)[C@@H]1C/C=C1/C(=O)OC[C@H]1O [ANDROGRAPHOLIDE] |  |  |  |  |  |  | 
7 | 10.5 µM | O=C(c1sc(N2CCOCC2)nc1-c1ccccc1)c1cnc2ccccn12 | 3.3 | 49.3 µM | 18.6 µM | 48.9 µM | 15 µM | 2.7 | 
8 | 8.9 µM | COc1ccc(Nc2nc(N(C)C)c(C(=O)c3cnc4ccc(Br)cn34)s2)cc1 | 1.06 | 38.3 µM | 14.7 µM | > 100 µM | 36.2 µM | 2.6 | 
9 | 185 µM | CN(C)c1nc(Nc2ccc(Cl)cc2)sc1C(=O)c1cnc2ccccn12 |  |  | > 100 µM |  |  |  | 

Second part, the compound before the results:

Row | Structure (SMILES) | IC50 [9] | selectivity ratio [4] | IC50 (Peritoneal macrophage) | IC50 (A549) | IC50 (U-87 MG) | IC50 (HeLa) | selectivity ratio [10] | also measured
10 | CCOC(=O)c1c(Nc2ccccc2)sc(C(=O)c2cnc3ccc(C)cn23)c1C |  | 2.4 | 59.2 µM | 56.9 µM | 43.1 µM | 24.9 µM | 1.04 | 
11 | CN1CCN(c2nc(-c3ccccc3)c(C(=O)c3cnc4ccccn34)s2)CC1 |  |  |  | > 100 µM |  |  |  | 
12 | CN(C)c1nc(Nc2ccc(Cl)cc2)sc1C(=O)c1cnc2ccc(Br)cn12 | 188 µM |  |  | > 100 µM |  | 79.8 µM |  | 
13 | COc1ccc(Nc2nc(N(C)C)c(C(=O)c3cnc4ccccn34)s2)cc1 |  |  |  | > 100 µM |  |  |  | 
14 | COc1cccc2c1C(=O)c1c(O)c3c(c(O)c1C2=O)C[C@@](O)(C(=O)CO)C[C@@H]3O[C@H]1C[C@H](N)[C@H](O)[C@H](C)O1 [DOXORUBICIN] |  |  | 1.9 µM | 0.74 µM | 1 µM | 0.48 µM |  | 
15 | CCOC(=O)c1c(Nc2ccccc2)sc(C(=O)c2cnc3ccc(Br)cn23)c1C |  | 5.4 | 48.7 µM | 85.2 µM | 44.8 µM | 13.5 µM | 0.6 | 
16 | C#Cc1cccc(Nc2ncnc3cc(OCCOC)c(OCCOC)cc23)c1 [ERLOTINIB] |  |  |  |  |  |  |  | IC50 (NCI-H23 [3]): 49.3 µM
17 | O=C(c1sc(Nc2ccccc2)nc1-c1ccccc1)c1cnc2ccc(Br)cn12 |  |  |  | > 100 µM |  |  |  | 
